Test: EDTA cobalt-sequestration assay of R6 insulin hexamer disassembly, with or without glucose
Format: physicochemical
Conditions: 25 mM glucose vs none, pH 7.4, large excess of EDTA, phenol-stabilized Co^2+ R6 hexamer
Source text: Glucose-responsive rates of disassembly were investigated using a spectroscopy assay in which the visible absorption spectrum of a cobalt (Co^2+)-substituted insulin hexamer was obtained in the presence of phenol as an R6 hexamer.
This band arises front the unfilled d-shell electrons of the cobalt ion and is a specific signature of a tetrahedral coordination environment. Addition of a large excess of the chelating agent ethylene-diamine-tetra-acetic acid (EDTA) leads to progressive sequestration of the metal ion (in a colorless octahedral complex) and so provides a rapid and convenient probe of the kinetics of hexamer disassembly.
To this end, insulin analogues were made 0.6 mM in a buffer containing 50 mM Tris-HCl (pH 7.4), 50 mM phenol, 0.2 mM CoCl2, and 2 mM NaSCN in the absence of glucose or in the presence of 25 mM glucose. The sample pH was in each case 7.4, and samples were incubated overnight at room temperature prior to the studies to ensure that a conformational equilibrium was reached. Spectra (400-750 nm) were obtained to monitor tetrahedral Co^2+ coordination with its signature d-d absorption band at or near 574 nm. To determine the rate of Co^2+ release from the hexamers, metal-ion sequestration was initiated at 33° C. […] Attenuation of the 574-nm absorption band was monitored on a time scale of seconds to hours. […]

## wild-type human insulin: Human insulin, A chain SEQ ID NO: 2 and B chain SEQ ID NO: 3
  difference in rate of hexamer disassembly (loss of R-state-specific d-d band) in presence versus absence of glucose: No difference was observed
Listed as Wild-type insulin
  difference in rate of hexamer disassembly (loss of R-state-specific d-d band) in presence versus absence of glucose: the same rate of loss

— patent US10584156B2, “Insulin analogues with a glucose-regulated conformational switch” (CASE WESTERN RESERVE UNIVERSITY, priority 2015, dated 2020)
